The results in this text go back to patent US6677371B1, “4-oxybenzopyran derivative” (Nissan Chemical Industries, Ltd., priority 1999, dated 2004).

What is called melting point is the temperature, or range, at which the solid turns liquid.

`CC(=O)Nc1cc2c(cc1[N+](=O)[O-])OC(C)(C)[C@@H](O)[C@@H]2OCCc1ccccc1` (relative stereo) [Synthesis example 2, Trans-6-acetylamino-3,4-dihydro-2,2-dimethyl-7-nitro-4-(2-phenylethoxy)-2H-1-benzopyran-3-ol] displayed a melting point of 123.5 to 127 °C.
